Results on eleven molecules are retold here after ChEMBL document CHEMBL1828546, “Aminothiophenedicarboxamides and dicyanothiopheneacetamides as effective synthetic molluscicides against Indoplanorbis exustus snail” (Eur J Med Chem, 2011).

Calls of active or inactive are those of the source. The rule behind the calls is not given here.

Type in all cases: functional
The subject of assay [1] is Indoplanorbis exustus. The assay can be described thus: Molluscicidal activity against Indoplanorbis exustus assessed as mortality at 0.02 to 40 ppm after 24 hrs.
Assay [2] concerns Indoplanorbis exustus. The experiment in a line: Molluscicidal activity against Indoplanorbis exustus after 24 hrs.
The test system of assay [3] is Indoplanorbis exustus. The assay can be described thus: Molluscicidal activity against Indoplanorbis exustus assessed as mortality at 20 ppm after 24 hrs.
Assay [4] has as its system Indoplanorbis exustus. The assay can be described thus: Molluscicidal activity against Indoplanorbis exustus assessed as mortality at 30 ppm after 24 hrs.
The test system of assay [5] is Indoplanorbis exustus. The experiment in a line: Molluscicidal activity against Indoplanorbis exustus assessed as mortality at 40 ppm after 24 hrs.
The test system of assay [6] is Indoplanorbis exustus. The assay can be described thus: Molluscicidal activity against Indoplanorbis exustus assessed as mortality at 10 ppm after 24 hrs.
The subject of assay [7] is Indoplanorbis exustus. The assay can be described thus: Molluscicidal activity against Indoplanorbis exustus assessed as mortality at 0.02 ppm after 24 hrs.
Assay [8] has as its system Indoplanorbis exustus. The experiment in a line: Molluscicidal activity against Indoplanorbis exustus assessed as mortality at 0.06 ppm after 24 hrs.
In assay [9] the test system is Indoplanorbis exustus. The experiment in a line: Molluscicidal activity against Indoplanorbis exustus assessed as mortality at 0.04 ppm after 24 hrs.
Assay [10] concerns Indoplanorbis exustus. The assay can be described thus: Molluscicidal activity against Indoplanorbis exustus assessed as mortality at 0.08 ppm after 24 hrs.

With `N#Cc1sc(N)c(C#N)c1-c1ccc(Cl)cc1`, in the assay with Indoplanorbis exustus [1], the result was inactive.
The same measure, in the same setting: the value for `Cc1nc2sc(C(N)=O)c(-c3ccc(Cl)cc3)c2c(=O)[nH]1` was “inactive”.
Broadly, the LC50 is the concentration that kills 50% of the test population. A high value points to a less lethal substance. In the assay with Indoplanorbis exustus [2], `NC(=O)c1sc(N)c(C(N)=O)c1-c1cc(C(F)(F)F)cc(C(F)(F)F)c1` yielded an LC50 of 0.751 ppm. For the same molecule, the Activity with Indoplanorbis exustus [3] came to 30%; in the assay with Indoplanorbis exustus [4], 60%; in the assay on Indoplanorbis exustus [5], 60%; with Indoplanorbis exustus [6] it was 20%.
Regarding `NC(=O)c1sc(N)c(C(N)=O)c1-c1ccc(Cl)cc1`, the LC50 in the assay with Indoplanorbis exustus [2] turned out to be 0.604 ppm. Also, the Activity in the assay on Indoplanorbis exustus [3] worked out at 20%; with Indoplanorbis exustus [4] it was 30%; in the assay on Indoplanorbis exustus [5], 50%; with Indoplanorbis exustus [6] it was 0%.
Take `CC(=O)Nc1sc(C#N)c(-c2ccc(Cl)cc2)c1C#N`: the LC50 with Indoplanorbis exustus [2] is 0.651 ppm. The Activity with Indoplanorbis exustus [7] worked out at 20%; with Indoplanorbis exustus [8] it was 60%; in the assay with Indoplanorbis exustus [9], 40%; with Indoplanorbis exustus [10], 80%.
`NC(=O)c1sc(N)c(C(N)=O)c1-c1ccc(F)cc1F` showed a median lethal concentration (LC50) in the assay on Indoplanorbis exustus [2] of 0.607 ppm. Also, the Activity with Indoplanorbis exustus [3] was determined as 40%; in the assay with Indoplanorbis exustus [4] it was 60%; in the assay with Indoplanorbis exustus [5], 70%; with Indoplanorbis exustus [6], 20%.
Regarding `N#Cc1sc(N)c(C#N)c1-c1ccc(F)cc1F`, the outcome with Indoplanorbis exustus [1] was inactive.
On to `NC(=O)c1sc2nc(CCl)[nH]c(=O)c2c1-c1ccc(Cl)cc1`, for which the outcome in the assay with Indoplanorbis exustus [1] was inactive.
With `CC(=O)Nc1sc(C#N)c(-c2ccc(F)cc2F)c1C#N`, in the assay with Indoplanorbis exustus [2], the LC50 amounted to 0.763 ppm. The Activity in the assay on Indoplanorbis exustus [7] amounted to 20%; in the assay on Indoplanorbis exustus [8] it was 50%; in the assay on Indoplanorbis exustus [9] it was 40%; in the assay on Indoplanorbis exustus [10], 60%.
In the case of `N#Cc1sc(N)c(C#N)c1-c1cc(C(F)(F)F)cc(C(F)(F)F)c1`, in the assay with Indoplanorbis exustus [1], the outcome was inactive.
As to `CC(=O)Nc1sc(C#N)c(-c2cc(C(F)(F)F)cc(C(F)(F)F)c2)c1C#N`, the LC50 with Indoplanorbis exustus [2] came out at 0.74 ppm. The Activity in the assay on Indoplanorbis exustus [7] was 20%; with Indoplanorbis exustus [8], 50%; in the assay with Indoplanorbis exustus [9] it was 30%; in the assay on Indoplanorbis exustus [10], 70%.
